Usually LD50 stands for the dose at which mortality reaches 50%. Read a high LD50 as lower toxicity.

Data set [1] relates to hepatic disorder caused by carbon tetrachloride. Nature of the data set: Effect of suppressing hepatic disorder caused by carbon tetrachloride. The format is in vivo, mice. The conditions noted are these: mean of 5; for Liver disorder index: mice (dd-strain), 250 mg/kg oral in olive oil, 6 h before carbon tetrachloride 0.05 ml/kg oral, visual observation 24 h after, scale 0 healthy, 2 slightly affected, 4 evident disorder, 6 serious disorder; for p-GPT (K.U.): plasma glutamic pyruvic transaminase activity, Reitman-Frankel, mice, 250 mg/kg oral, 6 h before carbon tetrachloride 0.05 ml/kg, 24 h after, values of 2,100 units or higher counted as 2,100. On the procedure: Six hours thereafter, carbon tetrachloride was orally administered in a proportion of 0.05 ml/kg. The animals were sacrificed 24 hours after the administration of carbon tetrachloride, and the extent of liver disorder was examined by visual observation. On the other hand, blood was collected from the animal at the time of the sacrifice, and centrifuged to obtain plasma. The plasma glutamic piruvic transaminase (GPT) activity was determined according to the method of Reitman-Frankel. The activity was expressed in terms of Karmen Units (K.U.). The conditions of the liver were expressed in terms of liver disorder index as follows. […] Mice were used in groups of five and the results of test were represented by the mean value. When the GPT activity was 2,100 units or higher, […], and the activity was calculated as 2,100 units for reasons of convenience.

A short description of data set [2]: Acute oral toxicity (LD50). The settings on record: in vivo, male rat. On the procedure:
For example, LD50 value (acute oral toxicity to male rat) of the compound No. 8 is more than 1,000 mg/kg.

Consider `CC(=O)C(C(=O)c1ccccc1)=C1SCS1` [Compound No. 1], for which, in data set [1], the Liver disorder index was 0.7 and the “p-GPT (K.U.)” value turned out to be 23 K.U.

Take `CC(=O)C(C(=O)c1cccc(C)c1)=C1SCS1` [Compound No. 2]: in data set [1], the Liver disorder index is on record as 0.8 and the “p-GPT (K.U.)” value turned out to be 22 K.U.

`COc1ccccc1C(=O)C(C(C)=O)=C1SCS1` [Compound No. 5, 1-(1,3-dithietan-2-ylidene)-1-(2-methoxybenzoyl)acetone]: in data set [1], the Liver disorder index is listed as 1.0 and the “p-GPT (K.U.)” value is reported as 12 K.U.

Take `COc1ccc(C(=O)C(C(C)=O)=C2SCS2)c(OC)c1` [Compound No. 8]: in data set [1], the Liver disorder index was determined as 0.6 and the “p-GPT (K.U.)” value came to 54 K.U. The compound also came in with an LD50 in data set [2] of over 1000 mg/kg.

For `CC(=O)C(C(=O)c1ccc(Cl)cc1Cl)=C1SCS1` [Compound No. 15], in data set [1], the Liver disorder index was found to be 0.5 and the “p-GPT (K.U.)” value was 203 K.U.

Consider `CC(=O)C(C(=O)c1ccc(C)cc1)=C1SCS1` [compound 3], for which, in data set [1], the Liver disorder index is 1.4 and the “p-GPT (K.U.)” value is 14 K.U.

Consider `CC(=O)C(C(=O)c1ccc(C)c(C)c1)=C1SCS1` [compound 4, 1-(3,4-dimethylbenzoyl)-1-(1,3-dithietan-2-ylidene)acetone], for which, in data set [1], the Liver disorder index came to 0.6 and the “p-GPT (K.U.)” value worked out at 23 K.U.

In the case of `COc1cccc(C(=O)C(C(C)=O)=C2SCS2)c1` [compound 6], in data set [1], the Liver disorder index turned out to be 2.0 and the “p-GPT (K.U.)” value was 16 K.U.

Turning to `COc1ccc(C(=O)C(C(C)=O)=C2SCS2)cc1` [compound 7], in data set [1], the Liver disorder index stood at 1.2 and the “p-GPT (K.U.)” value came out at 19 K.U.

Regarding `COc1ccc(C(=O)C(C(C)=O)=C2SCS2)cc1OC` [compound 9], in data set [1], the Liver disorder index was found to be 0.6 and the “p-GPT (K.U.)” value was found to be 11 K.U.

Take `COc1cc(C(=O)C(C(C)=O)=C2SCS2)cc(OC)c1OC` [compound 10]: in data set [1], the Liver disorder index was found to be 1.8 and the “p-GPT (K.U.)” value was 413 K.U.

`CC(=O)C(C(=O)c1ccc(OCc2ccccc2)cc1)=C1SCS1` [compound 11]: in data set [1], the Liver disorder index was 1.6 and the “p-GPT (K.U.)” value turned out to be 884 K.U.

As to `CC(=O)C(C(=O)c1ccc(OCc2ccc(Cl)cc2)cc1)=C1SCS1` [compound 12], in data set [1], the Liver disorder index came to 2.8 and the “p-GPT (K.U.)” value is listed as 1739 K.U.

Regarding `CC(=O)C(C(=O)c1ccccc1Cl)=C1SCS1` [compound 13], in data set [1], the Liver disorder index turned out to be 0.8 and the “p-GPT (K.U.)” value is reported as 13 K.U.

Consider `CC(=O)C(C(=O)c1ccc(Cl)cc1)=C1SCS1` [compound 14], for which, in data set [1], the Liver disorder index is 0.2 and the “p-GPT (K.U.)” value was 73 K.U.

For the compound `CC(=O)C(C(=O)c1ccc(Br)cc1)=C1SCS1` [compound 16, 1-(4-bromobenzoyl)-1-(1,3-dithietan-2-ylidene)acetone], in data set [1], the Liver disorder index was determined as 0 and the “p-GPT (K.U.)” value came to 15.8 K.U.

On to `CC(=O)C(C(=O)c1ccc(F)cc1)=C1SCS1` [compound 17], for which, in data set [1], the Liver disorder index came out at 0.4 and the “p-GPT (K.U.)” value was determined as 15 K.U.

For `CC(=O)C(C(C)=O)=C1SCS1` [compound 18, 1-acetyl-1-(1,3-dithietan-2-ylidene) acetone], in data set [1], the Liver disorder index came out at 1.6 and the “p-GPT (K.U.)” value worked out at 1142 K.U.

As for `CC(=O)C(C(=O)c1cccs1)=C1SCS1` [compound 19, 1-(1,3-dithietan-2-ylidene)-1-(2-thiophene-carbonyl)acetone], in data set [1], the Liver disorder index worked out at 0.2 and the “p-GPT (K.U.)” value amounted to 16 K.U.

As for `CC(=O)C(C(=O)c1ccco1)=C1SCS1` [compound 20], in data set [1], the Liver disorder index is 0 and the “p-GPT (K.U.)” value is reported as 22 K.U.

As for `CC(=O)C(C(=O)c1cccnc1)=C1SCS1` [compound 21], in data set [1], the Liver disorder index is 0.2 and the “p-GPT (K.U.)” value is 14 K.U.

Consider `O=C(C(C(=O)c1ccccc1)=C1SCS1)c1ccccc1` [compound 22], for which, in data set [1], the Liver disorder index is on record as 0.5 and the “p-GPT (K.U.)” value is 71 K.U.

For the compound `CC(=O)C(C(=O)c1ccccc1)=C1SC(c2ccccc2)S1` (stereo not shown) [compound 23], in data set [1], the Liver disorder index was 6.6 and the “p-GPT (K.U.)” value is 1668 K.U.

In the case of `COc1cccc(C(=O)C(C(C)=O)=C2SC(c3ccccc3)S2)c1` (stereo not shown) [compound 24], in data set [1], the Liver disorder index is reported as 3.8 and the “p-GPT (K.U.)” value is 1654 K.U.

With `CC(=O)C(C(C)=O)=C1SC(C)S1` (stereo not shown) [compound 25], in data set [1], the Liver disorder index is given as 1.2 and the “p-GPT (K.U.)” value worked out at 205 K.U.

`CC(C)C(=O)C(C(=O)c1ccccc1Cl)=C1SCS1` [compound 28]: in data set [1], the Liver disorder index was 1.0 and the “p-GPT (K.U.)” value is recorded as 42 K.U.

On to `CC(=O)C(C(=O)c1ccc(OC(C)C)cc1)=C1SCS1` [compound 29], for which, in data set [1], the Liver disorder index amounted to 3.4 and the “p-GPT (K.U.)” value came to 233 K.U.

For the compound `Cc1cccc(C(=O)C(C(=O)c2ccccc2)=C2SCS2)c1` [compound 30], in data set [1], the Liver disorder index amounted to 0.6 and the “p-GPT (K.U.)” value turned out to be 19 K.U.

On to `O=C(C(C(=O)c1ccc(F)cc1)=C1SCS1)c1ccccc1` [compound 31, 1-(1,3-dithietan-2-ylidene)-1-(4-fluorobenzoyl)acetophenone], for which, in data set [1], the Liver disorder index is 0.4 and the “p-GPT (K.U.)” value was 16 K.U.

As for `CC(=O)C(C(=O)c1ccc2ccccc2c1)=C1SCS1` [compound 32], in data set [1], the Liver disorder index is 0.8 and the “p-GPT (K.U.)” value is 18 K.U.

(Values after patent EP0234480A2, “1, 3-diketone derivatives and their use” (NIHON NOHYAKU CO., LTD., priority 1986, dated 1987).)
